Test results as given in paper PMC9841524, “Structure-Based Rational Design of Small α-Helical Peptides with Broad-Spectrum Activity against Multidrug-Resistant Pathogens” (Journal of Medicinal Chemistry, 2022).
Where no end group is shown, it is not given here.

What was measured:
MRSA (ATCC BAA-1556) = test: Bactericidal kinetic assay; assay type: cell-based, methicillin-resistant S. aureus; conditions: for killing of MRSA cells at 4 × MIC: after 4 h of incubation
Procedure: The time course of bacterial killing was studied by the exposure of overnight grown cultures of MRSA (ATCC BAA-1556) and E. coli (ATCC BAA-2452) to 8a and 8b at the MIC and 4× the MIC in Muller Hinton media. Bacterial cells (2 × 10^6 CFU/mL) were treated with peptides and standard antibiotics and incubated at 37 °C. Aliquots were withdrawn at a 30 min time interval for 4 h and plated on the agar plate to determine the number of viable bacterial colonies. Data were obtained from two independent experiments performed in triplicate.

[1] = Calcein dye leakage assay; conditions: after 100 min, 10% Triton X-100 = 100%, triplicate
Procedure: The calcein dye leakage assay was conducted using the large unilamellar vesicles (LUVs) composed of 1,2-dioleoyl-sn-glycero-3-phosphocholine (DOPC) and 1,2-dioleoyl-sn-glycero-3-phosphoglycerol (DOPG) to mimic the bacterial membrane (DOPC/DOPG, 7:3, w/w) or mammalian membrane (DOPC/cholesterol, 10:1, w/w), as we described previously.[18] At various concentrations (5, 10, 20, 30, and 50 μg/mL) test peptides 8a and 8b (50 μL) mixed with liposome suspension (50 μL), and fluorescence intensity was read every 10 min for 100 min at an excitation wavelength of 490 nm and an emission wavelength of 520 nm on a SpectraMax M5 multi-mode microplate reader. Considering calcein release from liposomes treated with a 10% solution (w/v) of Triton X-100 as 100%, the apparent percentage of dye leakage was calculated using the following formula [drawing 2] where F is the intensity measured at a given peptide concentration, F0 is the background intensity of the liposome sample, and Ft is the intensity after lysis induced by Triton X-100.

[2] = test system: human red blood cells (hRBCs); test: Hemolytic assay; assay type: cell-based; conditions: for decrease in the hemolytic activity on replacing Arg with Lys: 7b vs 7a, 8b vs 8a, HC50, hRBC; for HC50 (concentration at which 50% hemolysis was observed): 2 h, 37 °C
Outline: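 Peptides in 2-fold serial dilutions mixed 1:1 with 4% hRBC suspension in PBS and held 2 h at 37 °C unshaken. Hemoglobin release in supernatant read at 567 nm; % hemolysis scaled between PBS (0%) and 1% Triton X-100 (100%).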

[3] = test system: K. pneumoniae (ATCCBAA-1705); test: MIC, standard microtiter dilution (CLSI); assay type: cell-based, Klebsiella pneumoniae; conditions: broth microdilution (CLSI), CAMHB, 37 °C, 24 h
Outline: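 Inoculum 10^6 CFU/mL in CAMHB against 2-fold peptide series; salt variants used 150 mM NaCl, 4.5 mM KCl, 6 mM NH4Cl, 1 mM MgCl2, 2 mM CaCl2, or 25% FBS.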

[4] = Relative hydrophobicity as RP-HPLC retention time; assay type: physicochemical; conditions: chromatographic, Phenomenex Luna C18 4 μm 150 × 4.6 mm, linear AB gradient 1% acetonitrile/min, 0.3 mL/min, A water 0.1% TFA, B acetonitrile 0.1% TFA, 25 °C
Procedure: The purity analysis of the peptides was conducted on a RP-HPLC system (Shimadzu; LC-20ADXR) by using a Phenomenex (Luna) analytical C18 column (4 μm, 150 × 4.6 mm). The mass of the purified peptides was determined in the positive-ion mode using Q-TOF LC/MS (Compass Hystar 4.1, Bruker, USA). The purity (>95%) and mass data of all the synthesized peptides are provided in the Supporting Information.
8. Comparative Hydrophobicity analysis
The purity of all synthesized peptides was determined using reverse phase analytical HPLC
(Shimadzu; LC-20ADXR). Below mentioned are the conditions used to conduct the purity
Column: Phenomenex (Luna), 4 um, C18, 150 × 4.6 mm
Mobile Phase: Buffer A-Water containing 0.1% TFA,
Buffer B-Acetonitrile containing 0.1% TFA
Figure S52. HPLC chromatogram of 6a.
(1 picture or pasted object on this page, not shown here)

[5] = bacterial membrane mimicking LUVs
[6] = mammalian membrane mimicking LUVs
[7] = hRBC suspension 4% in PBS, hemoglobin release at 567 nm, 1% Triton X-100 = 100%
[8] = value in parentheses (μM), hRBC 4% in PBS, 567 nm
[9] = 10^6 CFU/mL, highest MIC of three independent experiments in triplicate

| Compound | time to complete killing of MRSA at 4 × MIC (MRSA (ATCC BAA-1556); 4 × MIC) | calcein dye leakage, 50 μg/mL [1, 5] | calcein dye leakage, 50 μg/mL [1, 6] | decrease in the hemolytic activity on replacing Arg with Lys [2] | HC50 (concentration at which 50% hemolysis was observed) [2, 7] | HC50 (concentration at which 50% hemolysis was observed) [2, 8] | MIC, K. pneumoniae (ATCCBAA-1705) [3, 9] | MIC, K. pneumoniae (ATCCBAA-1705) ([3]; value in parentheses (μM)) | tR, RP-HPLC retention time (measure of overall hydrophobicity) [4] | HC50 ([2]; abstract, hRBC) | killing of MRSA cells at 4 × MIC (MRSA (ATCC BAA-1556)) | calcein dye leakage, 5 μg/mL [1, 5] |
| --- | --- | --- | --- | --- | --- | --- | --- | --- | --- | --- | --- | --- |
| CCCCCCCCCC(=O)N[C@@H](Cc1c[nH]c2ccccc12)C(=O)N[C@H](CC(N)=O)C(=O)N[C@@H](CC(=O)O)C(=O)N[C@@H]1C(=O)NCC(=O)N[C@@H](CCCN)C(=O)N[C@@H](CC(=O)O)C(=O)N[C@H](C)C(=O)N[C@@H](CC(=O)O)C(=O)NCC(=O)N[C@H](CO)C(=O)N[C@@H]([C@H](C)CC(=O)O)C(=O)N[C@@H](CC(=O)c2ccccc2N)C(=O)O[C@@H]1C [daptomycin, reference compound] | 3 h | 42% | around 7% | – | – | – | – | – | – | – | – | – |
| KWIKKWIKWWKK-NH2 [7b] | – | – | – | approximately 5 fold | 460 µg/mL | 261.77 µM | 25 µg/mL | 14.23 µM | 32.23 min | – | – | – |
| KWLKKWLKWWKK-NH2 [8b] | – | – | 10% | approximately 5 fold | – | 159.34 µM | 6.2 µg/mL | 3.53 µM | 33.41 min | 280 µg/mL | completely eliminated | approximately 30% |
| RWIRRWIRWWRR-NH2 [7a] | – | – | – | – | 90 µg/mL | 46.74 µM | 12.5 µg/mL | 6.49 µM | 33.93 min | – | – | – |
| RWLRRWLRWWRR-NH2 [8a] | – | – | 19% | – | 45 µg/mL | 23.37 µM | 12.5 µg/mL | 6.49 µM | 34.99 min | – | completely eliminated | approximately 30% |
